Data on eight compounds can be found in US20040076581A1, “Use of neuropeptide y1 receptor binding compounds in the treatment and diagnosis of cancer” (priority 2000, published 2004).

Entries after “also recorded” stand apart in the source; their conditions may differ.

The target of experiment [1] is T1, NPY receptors in breast carcinoma (Homo sapiens, UniProt P25929).
T1 construct: Twenty-μm thick cryostat sections of the tissue samples were processed for NPY receptor autoradiography; from tissue; host or cells: human breast carcinoma cryostat sections
T1 sequence (P25929 1-384): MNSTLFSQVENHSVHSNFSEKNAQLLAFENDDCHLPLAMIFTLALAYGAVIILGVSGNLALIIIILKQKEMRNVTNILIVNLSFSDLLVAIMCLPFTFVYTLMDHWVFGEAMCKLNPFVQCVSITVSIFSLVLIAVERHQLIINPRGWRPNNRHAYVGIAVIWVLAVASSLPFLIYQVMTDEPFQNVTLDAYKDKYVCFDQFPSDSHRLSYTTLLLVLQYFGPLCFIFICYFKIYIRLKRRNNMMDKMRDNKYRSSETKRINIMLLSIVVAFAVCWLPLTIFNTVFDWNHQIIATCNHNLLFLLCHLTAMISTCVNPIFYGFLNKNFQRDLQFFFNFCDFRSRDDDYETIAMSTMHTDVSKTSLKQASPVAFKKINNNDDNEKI
Description: NPY receptor autoradiography, total binding of radioligands to breast carcinoma. On the procedure: (§1) Twenty-μm thick cryostat sections of the tissue samples were processed for NPY receptor autoradiography as described in detail previously for other peptide receptors (Reubi, J. C. et al. Cancer Res. 50, 5969-5977 (1990)). One radioligand used was ^125I-PYY (2'000 Ci/mmol; […], Switzerland), known to specifically label NPY receptors. For autoradiography, tissue sections were mounted on precleaned microscope slides and stored at -20° C. for at least 3 days to improve adhesion of the tissue to the slide. Sections were then processed according to Dumont et al. (J. Neurosci. 13, 73-86 (1993)). They were first preincubated in 119 mM NaCl, 3.2 mM KCl, 1.19 mM KH2PO4, 1.19 mm MgSO4, 25 mM NaHCO3, 2.53 mM CaCl2×2H2O and 10 mM D-glucose, pH 7.4 (preincubation solution), for 60 min at room temperature. The slides were then incubated in a solution containing the same medium as the preincubation solution in which the following compounds were added: 0.1% bovine serum albumin, 0.05% bacitracin, pH 7.4, and the radioligand, at approximate concentration of 22 pM ^125I-PYY. The slides were incubated at room temperature with the radioligand for 120 min. On completion of the incubation, the slides were washed four times for 5 min each in ice-cold preincubation solution, pH 7.4. They were rinsed twice in ice-cold distilled water, and then dried under a stream of cold air at 4° C., apposed to ^3H-Hyperfilms and exposed for 7 days in x-ray cassettes. […] Int 21, 45-67 (1992); […] Neurosci. 76, 215-224 (1997)). Identical experimental conditions as mentioned for ^125I-PYY were used. The autoradiograms were quantified using a computer-assisted image processing system, as described previously (Reubi et al. (1990), supra; […] & Reubi Can. Res. 59,1152-1159 (1999)). Tissue standards for iodinated compounds (Amersham) were used for this purpose. A tissue was defined as receptor-positive when the optical density measured in the total binding section was at least twice that of the nonspecific binding section (in the presence of 10^-7 mol/L PYY).

Experiment [2] deals with NPY receptors in normal breast. The experiment is described as follows: NPY receptor autoradiography, total binding of radioligands to adjacent normal breast. Also noted: species or system human. Particulars: FIG. 1. On the procedure: as §1
For experiment [3], the target named is T2, Y2 receptors in normal breast (Homo sapiens, UniProt P49146).
T2 construct: Twenty-μm thick cryostat sections of the tissue samples were processed for NPY receptor autoradiography; from tissue; host or cells: human normal breast tissue adjacent to carcinoma, cryostat sections
T2 sequence (P49146 1-381): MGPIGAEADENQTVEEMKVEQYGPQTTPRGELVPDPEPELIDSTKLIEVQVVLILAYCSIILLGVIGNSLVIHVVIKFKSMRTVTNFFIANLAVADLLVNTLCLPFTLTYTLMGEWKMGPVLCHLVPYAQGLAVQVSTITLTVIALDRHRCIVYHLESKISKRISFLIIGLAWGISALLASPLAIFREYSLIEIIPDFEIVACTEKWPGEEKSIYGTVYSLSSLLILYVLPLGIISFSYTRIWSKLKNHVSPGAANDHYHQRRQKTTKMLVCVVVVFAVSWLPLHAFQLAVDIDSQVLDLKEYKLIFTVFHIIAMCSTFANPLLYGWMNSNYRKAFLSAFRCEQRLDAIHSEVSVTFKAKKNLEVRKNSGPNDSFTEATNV
Description: NPY receptor autoradiography, displacement of 125I-PYY in adjacent normal breast sections. The class given is binding. The note with it: FIG. 1; surrounding normal breast expressing predominantly Y2. How it is done:
For autoradiography, tissue sections were mounted on precleaned microscope slides and stored at −20° C. for at least 3 days to improve adhesion of the tissue to the slide. […] The slides were incubated at room temperature with the radioligand for 120 min.
In selected cases, displacements with a single concentration (25 nM) of each of the above mentioned peptides were performed.
(§2) On completion of the incubation, the slides were washed four times for 5 min each in ice-cold preincubation solution, pH 7.4. They were rinsed twice in ice-cold distilled water, and then dried under a stream of cold air at 4° C., apposed to ^3H-Hyperfilms and exposed for 7 days in x-ray cassettes.
(§3) Tissue standards for iodinated compounds (Amersham) were used for this purpose.

Experiment [4] addresses T3, Y1 in human breast carcinoma (Homo sapiens, UniProt P25929).
T3 construct: Twenty-μm thick cryostat sections of the tissue samples were processed for NPY receptor autoradiography; from tissue; host or cells: human breast carcinoma cryostat sections
T3 sequence (P25929 1-384): T1 sequence (P25929 1-384)
The experiment is described as follows: NPY receptor autoradiography, displacement of 125I-PYY in breast carcinoma sections. The format is binding. Particulars: FIG. 2; increasing concentrations; Y1-expressing breast tumor. On the procedure: For autoradiography, tissue sections were mounted on precleaned microscope slides and stored at −20° C. for at least 3 days to improve adhesion of the tissue to the slide.
as §2, §3

As to ^125I-[Leu^31, Pro^34]-PYY, the “labeling of tumor by radioligand (total binding)” value (from here on “labeling of tumor by radioligand”) in experiment [1] (FIG. 1) is recorded as “strongly labeled”; in experiment [1] (FIG. 1, Pro^34]-PYY), “labeled”. In addition, the “labeling of breast by radioligand (total binding)” value (“labeling of breast by radioligand” for short) in experiment [2] is given as “not or only very weakly visible”.

On to [Leu^31, Pro^34]-NPY, for which the “affinity in surrounding breast (rank order of potency)” value in experiment [3] is reported as “low affinity”.

As to ^125I-PYY, the “labeling of tumor by radioligand” value in experiment [1] (FIG. 1) is “strong labeling”. Moreover, the “labeling of breast by radioligand” value in experiment [2] is reported as “strong labeling”.

Take “PYY: member of the NPY family of 36 amino acid long peptides [peptide YY]”: in experiment [4], the “displacement of 125I-PYY, competition curves” value (from here on “displacement of 125I-PYY”) was “high affinity displacement”.

As to PYY(13-36), the “displacement of 125I-PYY” value in experiment [4] is “not”.

In the case of ^125I-PYY(3-36), the “labeling of tumor by radioligand” value in experiment [1] (FIG. 1) is reported as “not seen”. In addition, the “labeling of breast by radioligand” value in experiment [2] is recorded as “labeled”.

With `C[C@H](N)C(=O)NCC(=O)N[C@H]1CSSC[C@@H](C(=O)O)NC(=O)[C@H](CO)NC(=O)[C@H]([C@@H](C)O)NC(=O)[C@H](Cc2ccccc2)NC(=O)[C@H]([C@@H](C)O)NC(=O)[C@H](CCCCN)NC(=O)[C@H](Cc2c[nH]c3ccccc23)NC(=O)[C@H](Cc2ccccc2)NC(=O)[C@H](Cc2ccccc2)NC(=O)[C@H](CC(N)=O)NC(=O)[C@H](CCCCN)NC1=O` [Somatostatin], the “displacement of 125I-PYY” value in experiment [4] was “inactive”.

For [Leu^31, Pro^34]-PYY, in experiment [4], the “displacement of 125I-PYY” value is given as “completely displace the radiotracer with high affinity; also recorded: high affinity displacement”. The “affinity in surrounding breast (rank order of potency)” value in experiment [3] is “low affinity”.
